Source: patent publication US20100119483A1, “PEPTIDE VIRAL ENTRY INHIBITORS” (Schering Corporation, priority 2004, published 2010)
Ends that are not written are not given here.

Columns and labels:
HCV pseudoparticles = assay: HCV pseudoparticle (HCVpp) entry assay in Huh7 hepatoma cells, luciferase readout; assay type: cell-based, hepatitis C virus; details: peptide library screen, first screened at 100 ug/ml; cell entry inhibition vs uninhibited control
Procedure, shortened: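 Huh7 cells were pre-treated with peptide for 1 h at 37 °C before exposure to HCV E1/E2-pseudotyped HIV luciferase particles made in 293T cells, followed by 72 h culture and luciferase readout. Peptides were tested at 10 points, 3-fold, from 100 ug/ml; particles lacking envelope served as non-specific entry control.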

[1] = tested on: amphotropic murine leukemia virus; assay: AMLV pseudotyped virus entry counter-screen, same infection protocol; assay type: cell-based; details: peptide library screen; cell entry inhibition vs uninhibited control
Procedure, shortened: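 Huh7 hepatoma cells pre-incubated with peptide 1 h at 37 °C, then infected with AMLV pseudotyped virus and cultured 72 h at 37 °C, 5% CO2 before luciferase read-out. Peptides screened at 100 ug/ml, then 10-point 3-fold titrations from 100 ug/ml.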

W-F-G-C-T-W-M-N-S-T-G-F-T-K-T-C (WFGCTWMNSTGFTKTC; HCV peptide) [SEQ ID NO: 54]
HCVpp % inh (HCV pseudoparticles): 39%
AMLVpp % inh [1]: −15%

W-G-V-L-A-G-L-A-Y-Y-S-M-V-G-N-W [SEQ ID NO: 26]
HCVpp % inh (HCV pseudoparticles): 50%
AMLVpp % inh [1]: 27%

Y-C-F-T-P-S-P-V-V-V-G-T-T-D-R-F (YCFTPSPVVVGTTDRF; not fully specified (C-terminus); printed as Y-C-F-T-P-S-P-V-V-V-G-T-T-D-R-F) [SEQ ID NO: 48]
HCVpp % inh (HCV pseudoparticles): 6%
AMLVpp % inh [1]: 21%

Y-E-V-R-N-V-S-G-V-Y-H-V-T-N-D-C [SEQ ID NO: 3]
HCVpp % inh (HCV pseudoparticles): 35%
AMLVpp % inh [1]: 18%

Y-G-I-G-S-A-V-V-S-F-A-I-K-W-E-Y [SEQ ID NO: 76]
HCVpp % inh (HCV pseudoparticles): 7%
AMLVpp % inh [1]: 24%

Y-V-G-D-L-C-G-S-V-F-L-V-A-Q-L-F [SEQ ID NO: 15]
HCVpp % inh (HCV pseudoparticles): 16%
AMLVpp % inh [1]: −31%
